Each structure is given as a SMILES string.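 Each compound was tested at five concentrations against cells in 96-well plates for 48 hours. GI50: concentration for 50% inhibition of growth. At the TGI there is no net growth.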 Some results are limits rather than exact numbers.

Experimental findings from PubChem BioAssay (NCI) are described below.

Holding throughout (assay): growth of human tumour cells (NCI), 48 h
The test system of assay [1] is SF-539 CNS.
Assay [2] concerns PC-3 prostate.
Assay [3] concerns SK-MEL-28 melanoma.
The test system of assay [4] is MDA-N.
Assay [5] deals with OVCAR-5 ovarian.
For assay [6], the system named is HCT-116 colon.
In assay [7] the test system is MDA-MB-435.
The subject of assay [8] is SR leukemia.
The test system of assay [9] is UACC-257 melanoma.
For assay [10], the system named is UACC-62 melanoma.
Assay [11] relates to NCI-H522 lung.
The test system of assay [12] is SF-295 CNS.
The subject of assay [13] is HL-60(TB) leukemia.
Assay [14] has as its system COLO 205 colon.
The subject of assay [15] is NCI-H23 lung.
The test system of assay [16] is M14 melanoma.
In assay [17] the test system is HS 578T breast.
Assay [18] relates to SK-OV-3 ovarian.
Assay [19] deals with HOP-62 NSCLC.

Turning to `COC(=O)C(Cc1cn(C(C)=O)c2ccccc12)P(=O)(OC)OC` (stereo not drawn), the TGI in [1], in assay [2], in [3], in assay [4], in assay [5] and in [6] was greater than 100 µM throughout. The TGI in assay [7], in assay [8], in [9], in assay [10], in [11] and in [12] was greater than 100 µM in each case. Moreover, the TGI in [13], in [14], in assay [15] and in assay [16] was greater than 100 µM throughout.
For the compound `CC(=O)O[C@@H]1CC[C@@]2(C)C(CC[C@H]3[C@@H]4CC[C@H]([C@H](C)CCc5nc6ccc(C)cc6[nH]5)[C@@]4(C)CC[C@@H]32)C1` (stereo partly drawn), the TGI in assay [1], in assay [2], in [3], in assay [5], in assay [6] and in assay [7] was greater than 100 µM in each case. Also, the TGI in assay [17], in assay [9], in assay [10], in [11], in assay [12] and in [14] was greater than 100 µM throughout. Besides, the TGI in assay [18], in assay [15], in assay [19] and in assay [16] was greater than 100 µM in each case.
For `OC(CCN1CCCCC1)(c1ccccc1)c1ccccc1`, the TGI in assay [2], in assay [3], in [4], in assay [5], in assay [6] and in [7] was greater than 100 µM in each case. Further, the TGI in [10], in assay [11], in [12], in assay [14], in assay [18] and in [15] was greater than 100 µM in each case. For the same compound, the TGI in [19] and in assay [16] was greater than 100 µM throughout.
Consider `COC1CC(C)C(OC)C2=CC(=O)C=C(NC(=O)/C(C)=C/C=C\C(C)C(OC(N)=O)/C(C)=C\C(C)C1OC)C2=O` (stereo not drawn), for which the TGI came to 1.04 µM in assay [1]; 23.6 µM in assay [2]; 1.05 µM in [3]; 17.8 µM in assay [5]; 1.51 µM in assay [6]; 0.729 µM in assay [8]. Moreover, the TGI in assay [9] was found to be 1.8 µM; in assay [10], 14.8 µM; in [11], 0.728 µM; in [12], 13.4 µM; in assay [13] it was 1.13 µM; in assay [14], 3.19 µM. The TGI was determined as 2.81 µM in assay [18], 13.8 µM in assay [15], 10.5 µM in assay [19] and 12.2 µM in assay [16]. In addition, the GI50 in assay [11] is 0.0592 µM.
Consider `COc1ccc2cc(Oc3ccc(Cl)cc3)c(=O)oc2c1`, for which the TGI in assay [1], in assay [2], in assay [3], in assay [4], in assay [5] and in [6] was greater than 100 µM each time. Besides, the TGI in assay [17], in assay [8], in assay [9], in assay [11], in assay [12] and in [13] was greater than 100 µM in each case. In addition, the TGI in [15], in assay [19] and in assay [16] was greater than 100 µM each time.
As for `Cc1cc([C@H](C#N)c2nc3ccccc3[nH]2)nc(Cl)n1`, the TGI in assay [1], in assay [2], in assay [3], in assay [6], in [7] and in assay [17] was greater than 100 µM throughout. The TGI in assay [8] was greater than 100 µM; in assay [9], 71.4 µM; in [10] it was 65.3 µM; in assay [12] it was greater than 100 µM; in [13] it was greater than 100 µM; in [14] it was greater than 100 µM. The TGI in assay [18] and in assay [15] was greater than 100 µM each time.
As for `O=C(Nc1ccc(Cl)cc1)C(=O)C(C(=O)c1ccccc1-c1ccccc1)C1OC(=O)c2ccccc21` (stereo not drawn), the TGI in assay [1] was found to be 58.4 µM; in assay [3], 36.6 µM; in assay [5], 92.4 µM; in [6], 32.1 µM; in assay [8], 82.9 µM; in assay [9] it was 61.3 µM. The TGI in assay [10] was 29.5 µM; in [11], 28.3 µM; in [12], greater than 100 µM; in assay [13] it was 53.5 µM; in [14], 44.4 µM; in [18] it was 64.3 µM. In addition, the figures for the TGI in [15], in assay [19] and in assay [16] were 53.4 µM, greater than 100 µM and 42.4 µM, respectively.
Regarding `CC(=O)Oc1cc2c(n(C)c1=O)-c1ccccc1C2`, the TGI in assay [2], in assay [3], in assay [4], in assay [5], in [6] and in assay [7] was greater than 100 µM each time. Further, the TGI in [17] was greater than 100 µM; in [9] it was greater than 100 µM; in assay [10], greater than 100 µM; in assay [11], 30.7 µM; in assay [12], greater than 100 µM; in assay [14], greater than 100 µM. Moreover, the TGI in assay [18], in assay [15], in [19] and in assay [16] was greater than 100 µM throughout.
